Test: thermodynamic stability of the crystalline modifications
Format: physicochemical
Details: in particular in the temperature range of −20° C. to 120° C.

For `COc1cccc([C@@]2(O)C[C@H](O)CC[C@@H]2CN(C)C)c1` (racemic) [Crystalline modification A, (1RS,3RS,6RS)-6-dimethylaminomethyl-1-(3-methoxyphenyl)-cyclohexan-1,3-diol], the thermodynamic stability was “most thermodynamically stable form”.

From patent US20110060053A1, “Crystalline Modifications of 6-Dimethylaminomethyl-1-(3-methoxyphenyl)-cyclohexane-1,3-diol” (Gruenenthal GmbH, priority 2002, published 2011)
